The subject of data set [1] is rat models of hypertensive renal disease. Put plainly: Pharmacodynamic study in DOCA-NaCl induced hypertensive renal disease model. Format: in vivo, male SD rats. The text has this:
PD and pharmacodynamic studies on the compounds of the present disclosure in male SD rat models of hypertension induced with deoxycorticosterone acetate-sodium chloride (DOCA-NaCl).
Prior to commencing the procedure, 7-8 weeks old male SD rats were allowed one week acclimatization. On the day of surgery, the table of the surgical area was disinfected with a disinfectant, and the rats were anesthetized with 2%-5% isoflurane and fixed on the table. The abdominal hair was removed and the surgical skin was disinfected. The skin and abdominal wall were cut open to expose the right kidney. The arteries and veins near the renal hilum were ligated. After it was confirmed that there were no bleeding points, the renal blood vessels and surrounding ligaments were bluntly separated and the right kidney was removed. After it was confirmed that there were no bleeding points, the abdominal wall muscle and skin were sutured. After the rats woke up, they were returned to the cage and observed. The rats were injected subcutaneously with meloxicam injection once a day for 3 consecutive days for pain relief.
One week after unilateral kidney removal, the animals were randomly divided into vehicle group, low dose group and high dose group according to body weight/blood pressure. The drinking water of animals in all groups was changed to an aqueous solution containing 1% sodium chloride+0.2% potassium chloride. […]

The nature of data set [2]: Rat group tissue distribution test. To be noted: intragastric, SD rats, n = 3; for concentration at 1 h / concentration at 4 h / concentration at 12 h: male, Sprague Dawley, rat, oral, read-out: Average drug concentration. Format: in vivo, SD male rats. The source says: In this study, SD male rats were selected as the test animals, and the LC/MS/MS method was used to quantitatively determine the drug concentration at different time points in the plasma, cerebrospinal fluid, brain, liver, and kidney of the test compounds administered orally to evaluate the tissue distribution of the test drugs in the rats.
Experimental materials: Sprague Dawley (SD) rats (male, 200-300 g, 7-10 weeks old, Beijing Vital River).
A clear solution or suspension of the test compounds was administered intragastrically into SD rats (fasted) (vehicle: 5% DMSO/10% Kolliphor® HS 15/85% water). […] The mixture was vortexed thoroughly and centrifuged at 3200 g, 4° C. for 10 minutes to obtain the plasma. The cerebrospinal fluid (about 0.02 mL) was collected. The brain, liver, and kidney were collected, rinsed with pre-cooled physiological saline, dried with paper, and then homogenated in a ratio of 1:4 (1 g of tissue: 4 mL of 15 mM phosphate-buffered physiological saline/MeOH (2:1)). The LC-MS/MS method was used to determine the drug concentration, and the Phoenix WinNonlin 6.3 pharmacokinetic software was used to calculate the relevant pharmacokinetic parameters by the non-compartmental model linear logarithmic trapezoidal method.

Like-named read-outs stand apart in the source and are kept apart here.

This is an account of results in patent US20250122190A1, “HALOGEN-SUBSTITUTED PYRIDAZINONE COMPOUND AND APPLICATION THEREOF” (MEDSHINE DISCOVERY INC., priority 2021, published 2025).

Turning to `O=c1[nH]ncc(N2CCc3c(ncnc3Sc3ccc(F)cc3C(F)(F)F)C2)c1Cl` [Compound WX002], the urinary albumin level result in data set [1] (30 mg/kg and 60 mg/kg intragastrically once a day for 28 days, vs vehicle control group) is “significantly reduce”. Also, the “expression of urinary Rac1” value in data set [1] (low and high dose, intragastrically once a day for 28 days, vs vehicle group) was “dose-dependently reduce”.
Consider `O=c1[nH]ncc(N2CCc3c(nc(CO)nc3Sc3ccc(F)cc3C(F)(F)F)C2)c1Cl` [Compound WX012], for which the Average drug concentration result in data set [2] (Brain, 12 h) was “BQL”. The concentration at 1 h in data set [2] (Brain) was 282 nM; in data set [2] (Kidney) it was 2630 nM; in data set [2] (Liver) it was 5120 nM; in data set [2] (Plasma), 773 nM. The concentration at 4 h in data set [2] (Brain) stood at 373 nM; in data set [2] (Kidney) it was 3440 nM; in data set [2] (Liver) it was 5820 nM; in data set [2] (Plasma), 1080 nM. Also, the concentration at 12 h in data set [2] (Kidney, 12 h) came to 276 nM; in data set [2] (Liver, 12 h), 570 nM; in data set [2] (Plasma, 12 h), 82.7 nM.
`Nc1nc2c(c(Sc3ccc(F)cc3C(F)(F)F)n1)CCN(c1cn[nH]c(=O)c1Cl)C2` [Compound WX013]: the concentration at 1 h came out at 139 nM in data set [2] (Brain), 1260 nM in data set [2] (Kidney), 2610 nM in data set [2] (Liver) and 536 nM in data set [2] (Plasma). The concentration at 4 h was 197 nM in data set [2] (Brain), 1470 nM in data set [2] (Kidney), 3360 nM in data set [2] (Liver) and 716 nM in data set [2] (Plasma). In addition, the concentration at 12 h in data set [2] (Brain, 12 h) was 86 nM; in data set [2] (Kidney, 12 h) it was 590 nM; in data set [2] (Liver, 12 h), 945 nM; in data set [2] (Plasma, 12 h), 272 nM.
